A short description of data set [1]: physchem. The data set is classed as physicochemical. The procedure:
An exemplary cell culture medium containing the dipeptides alanyl tyrosine (AlaTyr) and alanyl cysteine (which forms a disulfide dimer, [AlaCys]2) was prepared. Specifically, the dipeptides, alanyl tyrosine and alanyl cysteine were added as dry powder to an aqueous basal cell culture medium containing glucose and a mixture of concentrated amino acids and mixed until dissolved. […].

The conditions of data set [2]: 25° C., by way of comparison; cited from earlier work.

SMILES strings stand for the structures. In brackets after ≈: the same amount, converted by molar mass. Where a SMILES comes first, the peptide text is derived from it. Bridges are numbered along the chain shown (N, C = ends). Roman numbers before positions name the chains, in order.

Here are results for three compounds from patent US12529029B2, “Cell culture medium comprising small peptides” (LIFE TECHNOLOGIES CORPORATION, priority 2010, dated 2026).

For the compound `C[C@H](N)C(=O)N[C@@H](Cc1ccc(O)cc1)C(=O)O` [AlaTyr, alanyl tyrosine] (H-Ala-Tyr-OH), the solubility in data set [1] is around 15.4 mg/mL (≈ 61 mM).
With `N[C@@H](CSSC[C@H](N)C(=O)O)C(=O)O` [L-Cystine], the solubility in water result in data set [2] is recorded as “about 0.11 g/L”.
Consider `C[C@H](N)C(=O)N[C@@H](CSSC[C@H](NC(=O)[C@H](C)N)C(=O)O)C(=O)O` [[AlaCys]2 dimer, N,N′-di-L-Alanyl-L-Cystine] (I: H-Ala-Cys-OH / II: H-Ala-Cys-OH; disulfide I:2-II:2), for which, in data set [1], the solubility was around 8.7 mg/mL (≈ 22.7 mM).

Broadly, the solubility is the concentration that dissolves in the medium under given conditions. Read a high solubility as much dissolved substance.
